Measurements reported in ChEMBL document CHEMBL5291721, “A preclinical secondary pharmacology resource illuminates target-adverse drug reaction associations of marketed drugs” (Nat Commun, 2023).

Tests used:
[1] = molecular target: Histamine H2 receptor (Homo sapiens, UniProt P25021)
[2] = molecular target: 5-hydroxytryptamine receptor 2B (Homo sapiens, UniProt P41595)
[3] = molecular target: T1, Alpha-2A adrenergic receptor (Homo sapiens, UniProt P08913)
T1 sequence (P08913 whole entry): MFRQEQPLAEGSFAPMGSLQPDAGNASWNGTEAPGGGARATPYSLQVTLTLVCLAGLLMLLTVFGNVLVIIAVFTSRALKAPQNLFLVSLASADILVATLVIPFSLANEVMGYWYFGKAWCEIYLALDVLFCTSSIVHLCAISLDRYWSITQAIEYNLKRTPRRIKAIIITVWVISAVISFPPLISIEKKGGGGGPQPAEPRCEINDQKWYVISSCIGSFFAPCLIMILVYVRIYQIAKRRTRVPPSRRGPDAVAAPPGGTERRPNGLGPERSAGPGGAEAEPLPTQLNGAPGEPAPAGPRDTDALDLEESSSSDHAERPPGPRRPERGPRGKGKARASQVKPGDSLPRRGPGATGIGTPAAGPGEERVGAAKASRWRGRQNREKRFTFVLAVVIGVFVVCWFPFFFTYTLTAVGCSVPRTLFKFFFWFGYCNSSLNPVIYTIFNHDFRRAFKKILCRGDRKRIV

[4] = molecular target: D(1A) dopamine receptor (Homo sapiens, UniProt P21728)
[5] = molecular target: Beta-2 adrenergic receptor (Homo sapiens, UniProt P07550); type: functional, cell-based
[6] = molecular target: T2, Androgen receptor (Rattus norvegicus, UniProt P15207); type: functional
T2 sequence (P15207 whole entry): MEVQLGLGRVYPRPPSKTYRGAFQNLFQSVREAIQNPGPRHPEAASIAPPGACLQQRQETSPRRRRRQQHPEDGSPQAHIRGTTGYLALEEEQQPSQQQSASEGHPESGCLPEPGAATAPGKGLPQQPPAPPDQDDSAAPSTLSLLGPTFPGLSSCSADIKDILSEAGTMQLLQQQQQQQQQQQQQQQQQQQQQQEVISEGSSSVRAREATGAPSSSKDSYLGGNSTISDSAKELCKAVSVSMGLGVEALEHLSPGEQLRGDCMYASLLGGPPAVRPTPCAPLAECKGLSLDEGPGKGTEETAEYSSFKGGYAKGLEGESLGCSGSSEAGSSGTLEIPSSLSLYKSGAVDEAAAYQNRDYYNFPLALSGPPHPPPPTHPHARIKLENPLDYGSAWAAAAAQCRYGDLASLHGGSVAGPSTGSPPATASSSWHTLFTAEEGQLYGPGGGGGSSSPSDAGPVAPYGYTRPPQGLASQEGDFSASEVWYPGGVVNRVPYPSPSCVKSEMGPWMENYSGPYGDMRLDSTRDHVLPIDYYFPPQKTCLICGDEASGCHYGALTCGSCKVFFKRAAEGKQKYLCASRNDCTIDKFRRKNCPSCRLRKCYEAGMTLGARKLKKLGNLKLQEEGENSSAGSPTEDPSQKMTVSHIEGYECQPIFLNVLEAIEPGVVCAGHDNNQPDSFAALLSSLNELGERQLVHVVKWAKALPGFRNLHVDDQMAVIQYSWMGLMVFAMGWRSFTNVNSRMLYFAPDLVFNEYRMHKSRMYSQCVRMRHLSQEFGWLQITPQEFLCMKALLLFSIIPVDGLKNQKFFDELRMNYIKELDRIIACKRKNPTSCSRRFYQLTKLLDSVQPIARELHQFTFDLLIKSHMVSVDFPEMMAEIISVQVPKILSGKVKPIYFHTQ

[7] = molecular target: T2, Androgen receptor; type: functional; remark: listed apart in the source
[8] = molecular target: T3, Progesterone receptor (Homo sapiens, UniProt P06401)
T3 sequence (P06401 whole entry): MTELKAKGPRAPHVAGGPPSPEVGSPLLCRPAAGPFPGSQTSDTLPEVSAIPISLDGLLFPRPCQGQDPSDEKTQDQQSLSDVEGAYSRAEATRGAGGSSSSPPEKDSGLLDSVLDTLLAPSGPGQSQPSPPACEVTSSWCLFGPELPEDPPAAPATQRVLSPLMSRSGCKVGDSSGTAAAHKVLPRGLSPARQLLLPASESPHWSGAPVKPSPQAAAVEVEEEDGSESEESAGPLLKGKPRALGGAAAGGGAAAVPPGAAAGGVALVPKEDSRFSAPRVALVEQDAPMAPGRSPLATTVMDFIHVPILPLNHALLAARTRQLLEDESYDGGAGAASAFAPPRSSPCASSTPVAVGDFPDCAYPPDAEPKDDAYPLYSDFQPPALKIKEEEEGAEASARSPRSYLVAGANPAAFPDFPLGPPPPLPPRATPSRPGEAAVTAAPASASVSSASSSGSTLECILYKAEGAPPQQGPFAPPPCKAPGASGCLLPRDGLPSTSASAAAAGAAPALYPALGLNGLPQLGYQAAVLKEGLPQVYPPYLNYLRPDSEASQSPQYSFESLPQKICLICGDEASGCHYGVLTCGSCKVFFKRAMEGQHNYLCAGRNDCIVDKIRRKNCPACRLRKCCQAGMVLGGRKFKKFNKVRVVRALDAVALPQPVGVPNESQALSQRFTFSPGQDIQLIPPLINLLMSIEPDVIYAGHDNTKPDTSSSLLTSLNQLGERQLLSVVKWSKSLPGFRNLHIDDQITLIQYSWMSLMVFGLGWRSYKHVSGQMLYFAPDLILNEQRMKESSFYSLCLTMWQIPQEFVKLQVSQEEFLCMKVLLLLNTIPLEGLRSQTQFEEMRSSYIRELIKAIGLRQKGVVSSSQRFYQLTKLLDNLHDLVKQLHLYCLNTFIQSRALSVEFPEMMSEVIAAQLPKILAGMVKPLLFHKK

[9] = molecular target: 5-hydroxytryptamine receptor 2A (Homo sapiens, UniProt P28223)
Further: assay procedure not described here.

Sequence of 5-hydroxytryptamine receptor 2A (P28223 whole entry): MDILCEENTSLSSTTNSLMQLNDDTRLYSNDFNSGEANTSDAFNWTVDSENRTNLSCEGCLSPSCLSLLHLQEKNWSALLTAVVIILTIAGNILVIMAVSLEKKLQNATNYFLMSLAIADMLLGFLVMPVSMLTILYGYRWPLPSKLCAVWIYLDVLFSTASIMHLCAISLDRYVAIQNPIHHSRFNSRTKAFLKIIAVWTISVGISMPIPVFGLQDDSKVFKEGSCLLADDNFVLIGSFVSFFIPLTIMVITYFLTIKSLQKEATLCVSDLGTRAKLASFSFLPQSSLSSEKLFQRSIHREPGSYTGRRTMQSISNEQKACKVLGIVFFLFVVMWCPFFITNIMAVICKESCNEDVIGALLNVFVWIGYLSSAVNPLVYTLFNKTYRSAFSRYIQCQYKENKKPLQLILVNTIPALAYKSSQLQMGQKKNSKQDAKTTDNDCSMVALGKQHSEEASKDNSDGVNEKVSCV
Sequence of Histamine H2 receptor (P25021 whole entry): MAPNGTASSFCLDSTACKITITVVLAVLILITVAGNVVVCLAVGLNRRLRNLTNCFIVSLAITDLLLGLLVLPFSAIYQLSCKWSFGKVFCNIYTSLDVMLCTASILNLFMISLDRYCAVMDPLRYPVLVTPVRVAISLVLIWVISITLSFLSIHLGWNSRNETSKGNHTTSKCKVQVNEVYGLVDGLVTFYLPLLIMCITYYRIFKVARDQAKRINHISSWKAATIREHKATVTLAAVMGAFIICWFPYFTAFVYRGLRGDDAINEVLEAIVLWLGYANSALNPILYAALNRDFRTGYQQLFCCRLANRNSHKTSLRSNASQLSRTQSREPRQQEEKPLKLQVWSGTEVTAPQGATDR
Sequence of D(1A) dopamine receptor (P21728 whole entry): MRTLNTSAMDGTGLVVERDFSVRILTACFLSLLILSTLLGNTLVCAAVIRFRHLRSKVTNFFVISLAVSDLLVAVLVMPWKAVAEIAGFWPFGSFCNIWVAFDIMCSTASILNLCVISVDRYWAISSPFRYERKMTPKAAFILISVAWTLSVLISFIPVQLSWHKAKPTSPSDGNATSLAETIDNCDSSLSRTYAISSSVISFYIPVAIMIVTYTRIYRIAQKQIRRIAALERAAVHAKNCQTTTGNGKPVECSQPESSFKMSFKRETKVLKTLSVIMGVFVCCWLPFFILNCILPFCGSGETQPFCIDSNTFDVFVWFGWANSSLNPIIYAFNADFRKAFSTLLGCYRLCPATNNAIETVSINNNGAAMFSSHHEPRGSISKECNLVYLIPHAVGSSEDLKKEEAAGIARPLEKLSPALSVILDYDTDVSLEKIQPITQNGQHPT
Sequence of 5-hydroxytryptamine receptor 2B (P41595 whole entry): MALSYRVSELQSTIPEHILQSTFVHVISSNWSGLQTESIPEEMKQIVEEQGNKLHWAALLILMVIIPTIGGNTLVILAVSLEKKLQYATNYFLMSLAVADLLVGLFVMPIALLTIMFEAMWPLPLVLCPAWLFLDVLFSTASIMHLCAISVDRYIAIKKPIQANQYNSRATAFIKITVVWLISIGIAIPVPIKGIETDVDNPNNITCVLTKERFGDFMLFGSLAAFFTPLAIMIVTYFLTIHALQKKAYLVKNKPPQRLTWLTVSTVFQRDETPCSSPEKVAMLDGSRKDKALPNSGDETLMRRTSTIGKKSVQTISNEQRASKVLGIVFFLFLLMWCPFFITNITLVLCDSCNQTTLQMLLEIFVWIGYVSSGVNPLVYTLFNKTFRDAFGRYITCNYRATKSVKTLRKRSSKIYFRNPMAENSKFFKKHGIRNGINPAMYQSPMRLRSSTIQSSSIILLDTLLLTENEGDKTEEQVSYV
Sequence of Beta-2 adrenergic receptor (P07550 whole entry): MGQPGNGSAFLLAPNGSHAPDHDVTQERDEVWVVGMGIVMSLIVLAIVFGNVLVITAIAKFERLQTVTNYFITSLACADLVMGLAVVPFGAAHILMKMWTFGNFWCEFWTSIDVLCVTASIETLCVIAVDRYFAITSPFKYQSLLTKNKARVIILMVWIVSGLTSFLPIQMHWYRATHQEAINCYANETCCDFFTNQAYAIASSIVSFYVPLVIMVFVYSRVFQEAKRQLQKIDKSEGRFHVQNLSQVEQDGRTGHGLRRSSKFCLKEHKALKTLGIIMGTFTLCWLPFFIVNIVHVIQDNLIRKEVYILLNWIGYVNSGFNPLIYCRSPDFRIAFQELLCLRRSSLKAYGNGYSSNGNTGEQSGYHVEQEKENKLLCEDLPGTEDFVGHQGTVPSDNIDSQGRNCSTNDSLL

SMILES	AC50 [2] [µM]	AC50 [3] [µM]	AC50 [5] [µM]	AC50 [6] [µM]	other results
N#Cc1ccc([C@H]2CCc3cncn32)c(F)c1 [OSILODROSTAT]	> 10	> 10			AC50 [1]: > 10 µM; AC50 [4]: > 10 µM
Clc1ccc(CCCOCCCN2CCCCC2)cc1 [PITOLISANT]			> 30	> 30	AC50 [7]: > 30 µM
CCOC(=O)[N-]c1cn(N2CCOCC2)n[o+]1 [MOLSIDOMINE]			> 30		
CO/N=C(\C(=O)N[C@@H]1C(=O)N2C(C(=O)O)=C(CSc3nnnn3C)CS[C@H]12)c1csc(N)n1 [CEFMENOXIME]			> 30		
CCC(C(=O)O)c1ccc(N2Cc3ccccc3C2=O)cc1 (centres undefined) [INDOBUFEN]			> 30	> 30	AC50 [7]: > 30 µM
Cc1ccc(-n2nccn2)c(C(=O)N2CCN(c3nc4cc(Cl)ccc4o3)CC[C@H]2C)c1 [SUVOREXANT]				> 30	AC50 [7]: > 30 µM
Cn1c(=O)c2c(ncn2CC2OCCO2)n(C)c1=O [DOXOFYLLINE]			> 30	> 30	AC50 [7]: > 30 µM
CC[C@@H]1C(=O)OC[C@@H]1Cc1cncn1C [PILOCARPINE]	> 10	> 10	> 30		AC50 [8]: > 30 µM; AC50 [9]: 4.72 µM
C/C(O)=C(\C#N)C(=O)Nc1ccc(C(F)(F)F)cc1 [TERIFLUNOMIDE]			> 30	> 30	
CCCCc1ncc(/C=C(\Cc2cccs2)C(=O)O)n1Cc1ccc(C(=O)O)cc1 [EPROSARTAN]	> 10	> 10	> 30		AC50 [1]: > 10 µM; AC50 [8]: > 30 µM; AC50 [4]: > 10 µM; AC50 [9]: > 10 µM
CCCCCCOc1ccccc1C(N)=O [EXALAMIDE]	0.27				
CCN1CCN(C(=O)N[C@@H](C(=O)N[C@@H]2C(=O)N3C(C(=O)O)=C(CSc4nnnn4C)CS[C@H]23)c2ccc(O)cc2)C(=O)C1=O [CEFOPERAZONE]			> 30		
CN1C(=O)C(O)N=C(c2ccccc2)c2cc(Cl)ccc21 (centres undefined) [TEMAZEPAM]	> 10	> 10	> 30		AC50 [1]: > 10 µM; AC50 [8]: > 30 µM; AC50 [4]: > 10 µM; AC50 [9]: > 10 µM
COc1cc2c(N)nc(N3CCN(C(=O)OCC(C)(C)O)CC3)nc2c(OC)c1OC [TRIMAZOSIN]			> 30	17	
COc1ccc2c3c1O[C@H]1C(=O)CC[C@@]4(O)[C@@H](C2)N(C)CC[C@]314 [OXYCODONE]				> 30	AC50 [7]: > 30 µM
C=CCC1(C(C)CC)C(=O)NC(=O)NC1=O (centres undefined) [TALBUTAL]					AC50 [9]: > 10 µM
CC1(C)O[C@@H]2C[C@H]3[C@@H]4CCC5=CC(=O)C=C[C@]5(C)[C@H]4[C@@H](O)C[C@]3(C)[C@]2(C(=O)CO)O1 [DESONIDE]			> 30		
CCc1c(Cl)c(O)c(Cl)c(O)c1C(=O)O[C@H]1[C@H](O)[C@H](OC)[C@H](OC/C2=C\C=C\C[C@H](O)/C(C)=C/[C@H](CC)[C@@H](O[C@@H]3OC(C)(C)[C@@H](OC(=O)C(C)C)[C@H](O)[C@@H]3O)/C(C)=C/C(C)=C/C[C@@H]([C@@H](C)O)OC2=O)O[C@@H]1C [FIDAXOMICIN]	> 10	> 10		> 30	AC50 [1]: > 10 µM; AC50 [8]: 11.3 µM; AC50 [4]: > 10 µM; AC50 [9]: > 10 µM
Cc1cc(O)c(C(=O)N[C@@H](C(=O)N[C@@H]2C(=O)N3C(C(=O)O)=C(CSc4nnnn4C)CS[C@H]23)c2ccc(O)cc2)cn1 [CEFPIRAMIDE]				> 30	AC50 [7]: > 30 µM

SMILES	AC50 [2] [µM]	AC50 [3] [µM]	AC50 [5] [µM]	AC50 [6] [µM]	other results
C[C@H](N)[C@H](O)c1cccc(O)c1 [METARAMINOL]	> 30				AC50 [9]: > 10 µM
CCC1(CC)C(=O)NCC(C)C1=O (centres undefined) [METHYPRYLON]			> 30	> 30	
CC(C(=O)O)c1ccc(N2Cc3ccccc3C2=O)cc1 (centres undefined) [INDOPROFEN]					AC50 [4]: > 30 µM; AC50 [9]: > 10 µM
NCC(=O)CCC(=O)O [AMINOLEVULINIC ACID]			> 30		
CC(C)(C)c1cc(C(C)(C)C)c(NC(=O)c2c[nH]c3ccccc3c2=O)cc1O [IVACAFTOR]	> 10	> 10			AC50 [1]: > 10 µM; AC50 [8]: > 30 µM; AC50 [4]: > 10 µM; AC50 [9]: > 10 µM
C#C[C@]1(O)CC[C@H]2[C@@H]3CCC4=Cc5oncc5C[C@]4(C)[C@H]3CC[C@@]21C [DANAZOL]			> 30		
COc1ccc2c3c1O[C@H]1[C@@H](O)C=C[C@H]4[C@@H](C2)N(C)CC[C@@]341 [CODEINE]	> 10	> 10			AC50 [1]: > 10 µM; AC50 [8]: > 30 µM; AC50 [4]: > 10 µM; AC50 [9]: > 10 µM
CNS(=O)(=O)Cc1ccc2[nH]cc(CCN(C)C)c2c1	14	> 10	> 30		AC50 [1]: > 10 µM; AC50 [8]: > 30 µM; AC50 [4]: > 10 µM
CN1C(=O)C(O)N=C(c2ccccc2Cl)c2cc(Cl)ccc21 (centres undefined) [LORMETAZEPAM]				> 30	AC50 [7]: > 30 µM
CC(C)C(=O)c1c(C(C)C)nn2ccccc12 [IBUDILAST]			> 30		
CC(Oc1c(Cl)cccc1Cl)C1=NCCN1 (centres undefined) [LOFEXIDINE]				> 30	AC50 [7]: > 30 µM
COc1ccc(CCN(C)CCCC(C#N)(c2cc(OC)c(OC)c(OC)c2)C(C)C)cc1OC (centres undefined) [GALLOPAMIL]	0.0819		> 30		
CC(C)=CCC/C(C)=C/C=C/C(C)=C/C=C/C(C)=C/C=C/C=C(C)/C=C/C=C(C)/C=C/C=C(\C)CCC=C(C)C [LYCOPENE]				> 30	AC50 [7]: 24 µM
CN1CCC(=C2c3ccccc3CCc3sccc32)CC1 [PIZOTYLINE]		0.577	> 30		AC50 [9]: 0.0002 µM
CCCc1nc(C(C)(C)O)c(C(=O)OCc2oc(=O)oc2C)n1Cc1ccc(-c2ccccc2-c2nnn[nH]2)cc1 [OLMESARTAN MEDOXOMIL]	> 10	> 10			AC50 [8]: > 30 µM; AC50 [4]: > 10 µM; AC50 [9]: > 10 µM
CN1CCN(CC/C=C2/c3ccccc3Sc3ccc(S(=O)(=O)N(C)C)cc32)CC1 [THIOTHIXENE]	0.857	0.755			AC50 [1]: 0.145 µM; AC50 [8]: > 30 µM; AC50 [4]: 0.0774 µM
CC(C)Cn1cnc2c(N)nc3ccccc3c21 [IMIQUIMOD]					AC50 [8]: > 30 µM
CCCN(CCC)C(=O)C(CCC(=O)O)NC(=O)c1ccccc1 (centres undefined) [PROGLUMIDE]	> 10	> 10			AC50 [1]: > 10 µM; AC50 [8]: > 30 µM; AC50 [4]: > 10 µM
